Source: ChEMBL document CHEMBL5727796, “Substituted purine derivative” (2020)

Target: T1, Toll-like receptor 7 (Homo sapiens, UniProt Q9NYK1)
T1 sequence (Q9NYK1 whole entry): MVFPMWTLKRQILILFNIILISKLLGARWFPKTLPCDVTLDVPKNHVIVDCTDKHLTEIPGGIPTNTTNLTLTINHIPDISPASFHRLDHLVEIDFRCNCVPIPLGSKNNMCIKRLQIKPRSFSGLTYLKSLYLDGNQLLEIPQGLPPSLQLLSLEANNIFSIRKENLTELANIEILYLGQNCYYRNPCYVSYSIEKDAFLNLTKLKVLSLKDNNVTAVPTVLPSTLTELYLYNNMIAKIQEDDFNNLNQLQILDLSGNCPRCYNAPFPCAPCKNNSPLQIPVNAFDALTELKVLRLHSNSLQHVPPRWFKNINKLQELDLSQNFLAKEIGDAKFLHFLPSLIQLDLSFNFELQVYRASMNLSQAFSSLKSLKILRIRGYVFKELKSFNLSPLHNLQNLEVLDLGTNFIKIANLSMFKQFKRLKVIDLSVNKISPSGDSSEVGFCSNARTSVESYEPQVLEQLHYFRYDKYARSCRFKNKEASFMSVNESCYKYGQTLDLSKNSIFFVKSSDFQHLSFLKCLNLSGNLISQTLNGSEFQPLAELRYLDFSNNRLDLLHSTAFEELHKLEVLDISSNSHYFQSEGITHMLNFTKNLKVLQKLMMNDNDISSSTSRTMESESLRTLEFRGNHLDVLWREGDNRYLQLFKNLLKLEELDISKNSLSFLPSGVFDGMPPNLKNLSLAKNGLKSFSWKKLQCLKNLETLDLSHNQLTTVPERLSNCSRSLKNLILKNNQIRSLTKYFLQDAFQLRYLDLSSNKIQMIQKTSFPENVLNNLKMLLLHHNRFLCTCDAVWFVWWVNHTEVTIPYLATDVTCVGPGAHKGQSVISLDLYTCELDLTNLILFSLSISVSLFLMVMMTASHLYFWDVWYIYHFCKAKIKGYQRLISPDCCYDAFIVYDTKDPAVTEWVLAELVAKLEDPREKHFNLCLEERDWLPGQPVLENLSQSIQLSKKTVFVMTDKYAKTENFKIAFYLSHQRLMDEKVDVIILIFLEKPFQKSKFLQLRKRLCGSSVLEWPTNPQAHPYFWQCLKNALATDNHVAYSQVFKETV
Test: Inhibition of the Activation Assay: As human TLR7 expressing cell line, HEK293 cell line was bought from IMGENEX Corporation (TLR7/NF-ηB/SEAPorter™ HEK293 cell), which is human embryonic kidney cell line and stably expresses full-length human TLR7 gene and secreted alkaline phosphatase (SEAP) reporter gene under the transcriptional control of an NE-ηB response element. The TLR7/NF-ηB/SEAPorter™ HEK293 cell was cultivated with DMEM containing 10% fetal bovine serum (FBS) and 10 μg/mL blasticidin S at 37° C. in the presence of 5% CO2.

| Compound | IC50 [nM] |
| --- | --- |
| CCOc1nc(N)c2nc(-c3cncc(F)c3)n(Cc3cc(CN(C)C)no3)c2n1 | 1300 |
| CCOc1nc(N)c2nc(-c3cncc(F)c3)n(Cc3ccc(CN4CCN5CCC4C5)cc3)c2n1 (stereo not given) | 51 |
| COc1nc(C)c2nc(-c3cnccn3)n(Cc3ccc(C4CN5CCC4CC5)cc3F)c2n1 (stereo not given) | 43 |
| CCOc1nc(N)c2nc(-c3cncc(F)c3)n(Cc3ccc(F)c(OCCN(C)C)c3)c2n1 | 420 |
| CCOc1nc(N)c2nc(-c3cncc(F)c3)n(Cc3ccc(C4CCN(C)C4)cc3)c2n1 (stereo not given) | 20 |
| CCCCOc1nc(N)c2nc(-c3ccc(OCCCN4CCOCC4)cc3)n(Cc3ccccc3)c2n1 | 4100 |
| COc1nc(C)c2nc(-c3cccnc3)n(Cc3ccc(O[C@@H]4CN5CCC4CC5)cc3F)c2n1 | 70 |
| CCOc1nc(N)c2nc(-c3cncc(F)c3)n(Cc3ccnc(OCCN(C)C)c3)c2n1 | 1800 |
| CCOc1nc(N)c2nc(-c3cncc(F)c3)n(Cc3ccc(OCCN(C)C)nc3)c2n1 | 810 |
| CCOc1nc(N)c2nc(-c3cncc(F)c3)n(Cc3cccc(OCCCN(C)C)c3)c2n1 | 60 |
| CCOc1nc(N)c2nc(-c3cncc(F)c3)n(Cc3ccc(OCCN4CCN(C)CC4)cc3)c2n1 | 67 |
| CCOc1nc(N)c2nc(-c3cncc(F)c3)n(Cc3ccc4c(c3)CN(C(=O)CN(C)C)C4)c2n1 | 460 |
| CCCCOc1nc(N)c2nc(-c3ccc(CN4CCOCC4)cc3)n(Cc3ccccc3)c2n1 | 8200 |
| COc1nc(C)c2nc(-c3cncc(F)c3)n(Cc3ccc([C@H]4CN5CCC4CC5)cc3)c2n1 | 3 |
| CCCCOc1nc(N)c2nc(-c3cccc(CN4CCOCC4)c3)n(Cc3ccccc3)c2n1 | 13900 |
| CCOc1nc(N)c2nc(-c3cncc(F)c3)n(Cc3ccc(F)c(OCCN4CCCC4)c3)c2n1 | 620 |
| CCOc1nc(C)c2nc(-c3cncc(F)c3)n(Cc3ccc(C4CN5CCC4CC5)cc3)c2n1 (stereo not given) | 7 |

The remaining molecules from weak to strong by IC50, led by results:

| IC50 [nM] | Compound |
| --- | --- |
| 9500 | CCCCCc1nc(N)c2nc(-c3cncc(F)c3)n(Cc3ccccc3)c2n1 |
| 9100 | COCCOc1nc(N)c2nc(-c3cncc(C)c3)n(Cc3ccccc3)c2n1 |
| 5800 | CCOc1nc(N)c2nc(-c3cncc(F)c3)n(Cc3cc(OCCN(C)C)ccn3)c2n1 |
| 2680 | CCOc1nc(C)c2nc(-c3cncc(F)c3)n(Cc3cnn(C)c3)c2n1 |
| 2170 | CCOc1nc(N)c2nc(-c3cncc(F)c3)n(Cc3ccccc3OC(F)F)c2n1 |
| 1430 | CCOc1nc(N)c2nc(-c3cncc(F)c3)n(Cc3cccc(OCCN(C)C)n3)c2n1 |
| 620 | CCOc1nc(N)c2nc(-c3cncc(F)c3)n(Cc3ccc(OCCN4CCCC4)nc3)c2n1 |
| 355 | COc1nc(C)c2nc(-c3cncc(F)c3)n(Cc3ccc(CC4CCN(C(=O)OC(C)(C)C)CC4)cc3F)c2n1 |
| 291 | COc1nc(C)c2nc(-c3cncc(F)c3)n(Cc3ccc(C4=CCN(C(=O)OC(C)(C)C)CC4)cc3F)c2n1 |
| 280 | CCOc1nc(N)c2nc(-c3cncc(F)c3)n(Cc3ccc(OCCN4CCN(C)CC4)nc3)c2n1 |
| 230 | CCOc1nc(C)c2nc(-c3cncc(F)c3)n(Cc3ccc(CN4C[C@@H]5C[C@H]4CN5CC)nc3)c2n1 |
| 200 | CCCCOc1nc(C)c2nc(-c3cncc(F)c3)n(Cc3ccc(CN(C)C)cc3)c2n1 |
| 99 | CCOc1nc(N)c2nc(-c3cncc(F)c3)n(Cc3ccc(OCCN(C)C)cc3)c2n1 |
| 89 | CCOc1nc(N)c2nc(-c3cncc(F)c3)n(Cc3ccc(OCCCN(C)C)cc3)c2n1 |
| 84 | COc1nc(C)c2nc(-c3cncc(F)c3)n(Cc3ccc(C4CCN(C)C4)cc3)c2n1 (stereo not given) |
| 77 | CCOc1nc(N)c2nc(-c3cncc(F)c3)n(Cc3cccc(OCCN(C)C)c3)c2n1 |
| 63 | CCOc1nc(C)c2nc(-c3cncc(F)c3)n(Cc3ccc(CN4CCN5CC[C@H]4C5)cc3)c2n1 |
| 28 | CCOc1nc(C)c2nc(-c3cncc(F)c3)n(Cc3ccc(CN4CCN5CCC4C5)cc3)c2n1 (stereo not given) |
